Key:
Caco-2 cell monolayers = test: TNFα-induced decrease of transepithelial electrical resistance (TEER) in Caco-2 monolayers; assay type: cell-based; settings: FIGS. 17-20
[1] = 500 mg isotopically labeled, single dose, male subjects (n=8); cited from earlier work

Row | Structure (SMILES) | TNFα induced losses of intestinal barrier integrity (TEER) (Caco-2 cell monolayers) | adverse effects [1] | time metabolites were present in the circulation [1]
1 | Oc1cc(O)c2c(c1)OC(c1ccc(O)c(O)c1)C(O)C2 (stereo not drawn) [catechins, catechin] | prevents TNFα induced losses of intestinal barrier integrity | – | –
2 | OC[C@H]1O[C@@H](Oc2cc3c(O)cc(O)cc3[o+]c2-c2ccc(O)c(O)c2)[C@H](O)[C@@H](O)[C@@H]1O [cyanidin-3-glucoside] | – | no adverse effects | less than or equal to 48 hours
